Results as given in patent publication US20200129434A1, “LIPOSOME COMPOSITIONS AND USES THEREOF” (TECHNION RESEARCH & DEVELOPMENT FOUNDATION LIMITED, priority 2017, published 2020).

Tests used:
U87 glioblastoma cells [1] = experiment: Survival studies in U87 transferred mice; type: in vivo, SCID immuno-deficient mice
From the text: (§1) In order to assess the efficacy of the liposome composition in delivering a therapeutic agent to the brain, glioblastoma in a mouse model was employed. Curcumin was integrated into liposomes comprising cholesterol: phosphatidyl phosphoric acid: phosphatidyl choline in molar ratios of 35:7:58. The targeting peptide was present at 0.5% by molar ratio, mol % or weight %, and the curcumin was at a final concentration of 1% by molar ratio, mol % or weight %. The resulting liposomes where lyophilized, hydrated and downsized into a diameter of 0.1 μm±20%.
(§2) These liposomes comprised cholesterol: phosphatidyl phosphoric acid: phosphatidyl choline in molar ratios of 40:5:55. The molar concentration of the drug and targeting peptide were unchanged.
(§3) As a model of glioblastoma, SCID immuno-deficient mice were implanted with U87 glioblastoma cells. The U87 cells had previously been transfected with a luciferase gene, such that upon intraperitoneally injection of the mice with luciferin, the cells would fluoresce, allowing for accurate quantification and imaging of the tumor using the IVIS 200 imaging system. The degree of fluorescence measured was proportional to the number of cancer cells, and therefore indicated the cancer growth.
Curcumin and TMZ in targeted liposome carriers, were administered intraperitoneally to the mice 3 days after injection of the tumor cells and for at least 3 weeks. […]

U87 glioblastoma cells [2] = experiment: Tumor growth in the mouse model of glioblastoma, luciferase imaging with IVIS 200; type: in vivo, SCID immuno-deficient mice; conditions: 4 mg/kg daily intraperitoneally, FIG. 3A
From the text: as §1, §2
as §3, with “growth. […]” for “growth.”
By using the luciferase imaging system, quantification of the relative tumor size was possible (FIG. 3). […]

[3] = Evaluation of liposome compositions for delivery of curcumin (solubility, drug stability, half-life); type: physicochemical; conditions: curcumin loaded in the cholesterol/PA/PC liposome formulation
From the text: To test various liposome compositions, the water insoluble drug curcumin was employed as the therapeutic agent to be incorporated into the liposome. Curcumin, has been used for many clinical purposes, including as an antioxidant, antibacterial, anti-inflammatory agent, anti-neurodegenerative processes and anticancer agent. Curcumin however, is highly water-insoluble, has a very short biological half-life, and poor pharmacokinetics. Previous attempts at liposomes for the delivery of curcumin comprised cholesterol (Ch), 1,2-dioleyl-sn-glycero-3-phosphocholine (DOPC), 1,2-dioleyl-sn-glycero-3-phosphoethanolamine (DOPE), and 1,2-dioleoyl-sn-glycero-3-[phosphor-L-serine] (DOPS), usually in equimolar amounts.
Various compositions of liposomes for delivery of curcumin were tested and evaluated for drug loading, drug stability and half-life, and effective targeting in the body. […] The targeting peptide was dissolved in chloroform/methanol and added to the mixture at 0.1-2% by molar ratio, mol % or weight %.
Loading of the drug into the liposome was achieved by pre-dissolving the target drug during the preparation of the liposome, thereby enabling a desired and reproducible concentration of the drug in the most stabilized environment.

Row | SMILES | survival time of all mice after tumor cell transfer (U87 glioblastoma cells [1]; daily dosing 4 mg/kg, FIG. 4) [days] | latency period before tumor growth (U87 glioblastoma cells [2]) [weeks] | degradation and biological half-life of the drug [3] | survival compared with control (in words) (U87 glioblastoma cells [1]; 4 mg drug/kg mouse daily)
1 | Cn1nnc2c(C(N)=O)ncn2c1=O [free TMZ, Temozolomide] | ≤ 30 | 2 | – | –
2 | COc1cc(/C=C/C(=O)CC(=O)/C=C/c2ccc(O)c(OC)c2)ccc1O [free curcumin, curcumin] | – | – | protect the drug from degradation and prolong its biological half-life | survival was not significantly extended
